Reference: ChEMBL document CHEMBL2029276, “E297G mutated bile salt export pump (BSEP) function enhancers derived from GW4064: structural development study and separation from farnesoid X receptor-agonistic activity” (Bioorg Med Chem Lett, 2012)

Key:
Bile salt export pump [1] = biological target: T1, Bile salt export pump (Homo sapiens, UniProt O95342, E297G); test: Enhancement of human BSEP E297G mutant trafficking to cell membrane in MDCK2 cells co-expressing NTCP assessed as accumulation of [3H]taurocholate at 10 uM preincubated for 24 hrs prior incubation with [3H]taurocholate measured after 2 hrs by liquid scintillation counting; conditions: mdck-ii
Bile acid receptor = biological target: T2, Bile acid receptor (Homo sapiens, UniProt Q96RI1); test: Agonist activity at human recombinant FXR expressed in HEK293 cells coexpressing CMX-GAL4N by luciferase reporter gene assay; format: functional, cell-based
T2 sequence (Q96RI1 whole entry): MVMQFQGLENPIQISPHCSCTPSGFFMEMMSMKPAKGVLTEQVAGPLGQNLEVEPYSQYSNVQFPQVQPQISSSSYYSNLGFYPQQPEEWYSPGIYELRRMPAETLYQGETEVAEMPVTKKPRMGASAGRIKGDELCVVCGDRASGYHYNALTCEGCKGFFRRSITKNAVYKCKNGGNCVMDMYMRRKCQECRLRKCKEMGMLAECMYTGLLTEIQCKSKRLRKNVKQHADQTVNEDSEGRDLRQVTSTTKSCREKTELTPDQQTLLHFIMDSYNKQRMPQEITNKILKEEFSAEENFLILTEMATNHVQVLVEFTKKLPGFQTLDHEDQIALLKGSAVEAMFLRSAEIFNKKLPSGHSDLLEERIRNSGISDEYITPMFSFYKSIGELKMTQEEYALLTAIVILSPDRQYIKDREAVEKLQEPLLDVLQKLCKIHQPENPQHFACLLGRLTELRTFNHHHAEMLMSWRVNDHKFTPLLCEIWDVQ

Bile salt export pump [2] = biological target: T1, Bile salt export pump; test: Enhancement of human BSEP E297G mutant trafficking to cell membrane in MDCK2 cells co-expressing NTCP assessed as accumulation of [3H]taurocholate at 1 uM preincubated for 24 hrs prior incubation with [3H]taurocholate measured after 2 hrs by liquid scintillation counting; conditions: mdck-ii

T1 sequence (O95342 whole entry E297G, the tested form may be a part): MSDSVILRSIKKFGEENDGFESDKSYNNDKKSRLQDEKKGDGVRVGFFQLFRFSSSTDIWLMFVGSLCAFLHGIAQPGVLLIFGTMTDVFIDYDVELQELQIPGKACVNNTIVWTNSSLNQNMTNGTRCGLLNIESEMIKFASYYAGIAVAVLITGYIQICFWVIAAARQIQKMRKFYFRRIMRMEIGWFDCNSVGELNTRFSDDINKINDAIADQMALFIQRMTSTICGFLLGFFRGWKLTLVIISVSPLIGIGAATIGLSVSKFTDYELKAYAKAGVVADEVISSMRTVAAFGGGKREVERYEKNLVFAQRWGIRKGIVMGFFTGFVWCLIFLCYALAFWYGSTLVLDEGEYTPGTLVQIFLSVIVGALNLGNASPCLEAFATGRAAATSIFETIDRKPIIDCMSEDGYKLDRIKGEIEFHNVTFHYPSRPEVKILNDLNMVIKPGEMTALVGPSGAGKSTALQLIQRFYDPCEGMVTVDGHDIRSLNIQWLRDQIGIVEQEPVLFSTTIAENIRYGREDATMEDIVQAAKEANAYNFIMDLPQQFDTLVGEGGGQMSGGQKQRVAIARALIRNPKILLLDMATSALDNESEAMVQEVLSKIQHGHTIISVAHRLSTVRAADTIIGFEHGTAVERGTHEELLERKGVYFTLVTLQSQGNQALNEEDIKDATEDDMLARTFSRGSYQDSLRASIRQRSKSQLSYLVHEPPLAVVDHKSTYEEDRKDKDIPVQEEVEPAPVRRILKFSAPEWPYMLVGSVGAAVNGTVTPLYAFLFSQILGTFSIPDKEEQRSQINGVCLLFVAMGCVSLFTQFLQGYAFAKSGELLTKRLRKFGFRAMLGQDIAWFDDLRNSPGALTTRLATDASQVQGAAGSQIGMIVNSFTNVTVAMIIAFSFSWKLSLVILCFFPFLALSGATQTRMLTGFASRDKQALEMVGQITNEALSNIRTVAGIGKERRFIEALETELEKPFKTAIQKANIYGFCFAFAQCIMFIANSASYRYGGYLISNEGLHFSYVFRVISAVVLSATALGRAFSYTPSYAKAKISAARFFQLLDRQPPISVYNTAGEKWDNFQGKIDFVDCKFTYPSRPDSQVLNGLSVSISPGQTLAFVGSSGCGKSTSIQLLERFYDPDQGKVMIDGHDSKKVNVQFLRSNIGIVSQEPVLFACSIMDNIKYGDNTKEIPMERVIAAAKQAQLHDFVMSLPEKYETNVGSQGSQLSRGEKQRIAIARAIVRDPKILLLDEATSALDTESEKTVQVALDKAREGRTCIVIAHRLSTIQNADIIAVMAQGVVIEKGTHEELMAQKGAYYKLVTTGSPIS

| SMILES | Activity (Bile salt export pump [1]) [%] | EC50 (Bile acid receptor) [nM] | Activity (Bile salt export pump [2]) [%] |
| --- | --- | --- | --- |
| CC(C)c1onc(-c2c(Cl)cccc2Cl)c1COc1ccc(C(=O)N(Cc2ccccc2)c2cccc(C(=O)O)c2)c(Cl)c1 | 31 | – | – |
| CC(C)c1onc(-c2c(Cl)cccc2Cl)c1COc1ccc(N(C(=O)c2cccc(C(=O)O)c2)c2cccc3ccccc23)c(Cl)c1 | 59 | 410 | – |
| CC(C)c1onc(-c2c(Cl)cccc2Cl)c1COc1ccc(NC(=O)c2cccc(C(=O)O)c2)c(Cl)c1 | 75 | – | – |
| CC(C)c1onc(-c2c(Cl)cccc2Cl)c1COc1ccc(C(=O)N(Cc2ccccc2)c2ccc(C(=O)O)cc2)c(Cl)c1 | – | 2600 | – |
| CC(C)c1onc(-c2c(Cl)cccc2Cl)c1COc1ccc(N(C)C(=O)c2cccc(C(=O)O)c2)c(Cl)c1 | 60 | – | – |
| CCCCN(C(=O)c1ccc(OCc2c(-c3c(Cl)cccc3Cl)noc2C(C)C)cc1Cl)c1cccc(C(=O)O)c1 | – | 1100 | – |
| CC(C)c1onc(-c2c(Cl)cccc2Cl)c1COc1ccc(C(=O)N(c2cccc(C(=O)O)c2)c2cccc3ccccc23)c(Cl)c1 | – | 3000 | – |
| CC(C)c1onc(-c2c(Cl)cccc2Cl)c1COc1ccc(/C=C/c2cccc(C(=O)O)c2)c(Cl)c1 | 33 | – | – |
| C[C@H](CCC(=O)O)[C@H]1CC[C@H]2[C@@H]3CC[C@@H]4C[C@H](O)CC[C@]4(C)[C@H]3C[C@H](O)[C@]12C [DEOXYCHOLIC ACID] | – | 50000 | – |
| C[C@H](CCC(=O)O)[C@H]1CC[C@H]2[C@@H]3[C@H](O)C[C@@H]4C[C@H](O)CC[C@]4(C)[C@H]3CC[C@]12C [CHENODIOL] | 50 | – | – |
| CCCCN(C(=O)c1cccc(C(=O)O)c1)c1ccc(OCc2c(-c3c(Cl)cccc3Cl)noc2C(C)C)cc1Cl | 42 | – | 59 |
| CC(C)c1onc(-c2c(Cl)cccc2Cl)c1COc1ccc(N(Cc2ccccc2)C(=O)c2cccc(C(=O)O)c2)c(Cl)c1 | 50 | > 10000 | – |
